Measured values taken from US9238650B2, “Solid forms of a pyrido-pyrimidinium inner salt” (E. I. DU PONT DE NEMOURS AND COMPANY, priority 2012, dated 2016).
Entries after “also recorded” stand apart in the source; their conditions may differ. Counter-ions that a name gives are not always drawn.

Tests used:
Assay type in all cases: physicochemical
[1] = Solubility of Compound 1 in the test solvent, filtrate analyzed by HPLC; conditions: 22° C., 5 days, label = starting polymorph form(s)
Experimental: HPLC was used to determine the purity of Compound 1 and intermediates. An Agilent 1100/1200 series HPLC system with DAD/UV detector and reverse-phase column (Agilent Zorbax® SB C8 (4.6×150) mm, 3.5 μm, Part No. 863953-906) was used. Flow rate was 1 mL/min, run time 27 min, injection volume 3.0 μL, and the column oven temperature was 40° C. A mobile phase gradient according to Table 1 was used wherein mobile phase A was 0.03% by volume orthophosphoric acid and mobile Phase B was acetonitrile (HPLC grade). Mobile phase A was prepared by thoroughly mixing 0.3 mL of orthophosphoric acid (AR grade) with 999.7 mL of deionized water. Standard solutions were prepared by weighing 22.0±2.0 mg of the analytical standard in duplicate into separate 50-mL volumetric flasks, dissolving and diluting with the diluent. Samples were prepared by weighing 40.0±2.0 mg of the sample into a 100 mL standard volumetric flask, dissolving and diluting with the diluent. For analysis, the HPLC system and column were equilibrated with initial mobile phase. In the chromatographic sequence, blank samples, standard samples and test samples were run. The retention time for Compound 1 was about 22.2 min. Peaks appearing in the blank sample were not integrated, all other peaks were integrated and a % purity reported from the sample chromatogram. For wt % determination the concentration of test sample was calibrated against the standard sample.
(§1) Polymorph Forms A and B of Compound 1 were subjected to non-competitive and competitive interconversion experiments. […] For the competitive experiments, polymorph Forms A and B were mixed together and studied for the potential conversion to the more thermodynamically stable form. The starting polymorph form(s) were mixed with various solvents for 5 days at 22° C., and then filtered. The filtrate was analyzed by HPLC to determine the solubility of Compound 1 in the test solvent. The solids were dried and analyzed by pXRD.

[2] = Relative stability (non-competitive and competitive interconversion) of polymorph Forms A and B in various solvents at 22° C., solids analyzed by pXRD; conditions: concluded from conversion of Form B to Form A in solvents at 22° C.
Experimental: as §1
A detailed description of the individual experiments for Examples 6a to 6j is given below.
(§2) In Example 6a, Form B of Compound 1 (0.3 g) was mixed with acetone (5 g) at 22° C. for 5 days. The slurry was then filtered through a syringe filter (0.45 μm glass fiber, type Whatman GE Autovial) and dried in a vacuum oven at 40° C. for 48 hours. Analysis by pXRD indicated Form A of compound 1.
as §2, with “6b,” for “6a,”, “B (0.3 g) and Form A (0.01 g)” for “B”, “were” for “(0.3 g) was”, “Compound” for “compound”
In Example 6c, Form B (0.3 g) of Compound 1 was mixed with tetrahydrofuran (5 g) at 22° C. for 5 days. […]

[3] = Temperature-dependent X-ray powder diffraction of polymorph Form A; conditions: pure solid, heated from 25° C. to the melting point at 10° C. per minute
Experimental: To assess the stability of polymorph Form A of Compound 1 with respect to temperature, X-ray powder diffraction patterns were obtained while heating a sample of Form A from 25° C. to above its melting point. The measurement was conducted at the 5-IDD beam line at the Advanced Photon Source synchrotron located at the Argonne National Laboratory (Argonne, Ill., USA). A Differential-Scanning calorimeter (DSC, Model DSC600, Linkam Scientific Instruments, Tadworth, U.K.) was mounted in vertical orientation to allow insertion of the DSC into the X-ray beam. The DSC was positioned in the beam line to accept a 100-200 μm square beam under high vacuum. The standard quartz window was replaced with polyimide film (Kapton®, 8 μm thickness, DuPont, Wilmington, Del., USA). An internal thermocouple was installed for temperature recording. A circular charged couple device (CCD) detector (Model Mar165, 165 mm diameter, Marresearch GmbH, Norderstedt, Germany) was used to detect the X-rays scattered from the sample. The detector was equipped with an aluminum cone that covered the detector and extended 100 mm from the face of the detector. This cone was quipped with a beam stop support and 5×3 mm lead beam stop. The cone was continuously purged with helium to minimize air scattering. […]

[4] = Solid-liquid separation efficiency: time to complete filtration on a lab nutsche filter; conditions: for Filtration time: time required to complete filtration of 90 g from reaction mass
Experimental: In separate experiments, about 90 grams of Polymorph Forms A and B of Compound 1 were prepared according to PREPARATION EXAMPLE 1 and 2, respectively. The solids were filtered from their reaction mass using a lab nutsche filter. The times to complete the filtrations (indicated by no further liquid dripping from the filter) were measured and are reported in Table 12.

[5] = Particle size distribution by laser diffraction particle size analyzer after dispersion in deionized water; conditions: dispersed in deionized water; for D50: median particle size; for D[4, 3]: volume-weighted mean particle size
Experimental: After the observation of increased settling velocity of Polymorph Form A compared to Form B (see CHARACTERIZATION EXAMPLE 9), the particle size distributions of the two forms were measured. Form B of Compound 1 was prepared according to PREPARATION EXAMPLE 2. Some of the Form B thus prepared was converted to Form A according to PREPARATION EXAMPLE 5. The particle size distribution of both Form A and B samples were determined after dispersion in deionized water using a laser diffraction particle size analyzer (model Mastersizer 2000 by Malvern Instruments, Malvern, UK). The particle size distribution parameters D10, D50 and D90 are reported in Table 13 below, wherein D50 represents the median particle size of the distribution, i.e. 50% of the particles are smaller and 50% are larger than that size. D10 indicates the particle size at which 10% of all particles are smaller than that size. Similarly, D90 indicates the particle size at which 90% of all particles are smaller than that size. The volume-weighted mean particle sizes D[4,3] are also reported.

[6] = Crystal density by helium gas pygnometry
Text: However, once Form B has converted to Form A in the slurry, the particles start to settle to the bottom of the flask rapidly after stirring is turned off indicating increased particle size of the Form A crystals. […] High particle size and settling velocities are important process advantages for solid-liquid separation operations in commercial manufacturing. Large average particle size improve filtration and centrifugation steps by increased filtration speeds, higher throughputs, lower propensity to filter cake cracking and resulting filtrate by-passing, increased cake wash efficiency and increased product purity.

Compound: Cc1cccn2c(=O)c(-c3cc(Cl)cc(Cl)c3)c([O-])[n+](Cc3cnc(Cl)s3)c12 [B + seed A, 1-[(2-chloro-5-thiazolyl)methyl]-3-(3,5-dichlorophenyl)-2-hydroxy-9-methyl-4-oxo-4H-pyrido[1,2-a]pyrimidinium inner salt]
- Concentration of Compound 1 in filtrate ([1]; acetone): 0.34 wt %
- Concentration of Compound 1 in filtrate ([1]; ethyl acetate): 0.09 wt %
- Concentration of Compound 1 in filtrate ([1]; tetrahydrofuran): 1.01 wt %
- Concentration of Compound 1 in filtrate ([1]; toluene): 0.023 wt %
- Concentration of Compound 1 in filtrate ([1]; water): <0.01 wt %

Compound: Cc1cccn2c(=O)c(-c3cc(Cl)cc(Cl)c3)c([O-])[n+](Cc3cnc(Cl)s3)c12 [Form A, 1-[(2-chloro-5-thiazolyl)methyl]-3-(3,5-dichlorophenyl)-2-hydroxy-9-methyl-4-oxo-4H-pyrido[1,2-a]pyrimidinium inner salt]
- Relative thermodynamic stability [2]: more thermodynamically stable than Form B
- Stability of the crystal form with respect to temperature (pXRD while heating) [3]: no crystal form conversion to another polymorph occurred; also recorded: physically and chemically stable in its pure solid form
- Filtration time [4]: 0.9 min
- D10 [5]: 13 μm
- D90 [5]: 73 μm
- D50 [5]: 34 μm
- D[4, 3] [5]: 39 μm
- density [6]: 1.597 g/mL

Compound: Cc1cccn2c(=O)c(-c3cc(Cl)cc(Cl)c3)c([O-])[n+](Cc3cnc(Cl)s3)c12 [Form B, 1-[(2-chloro-5-thiazolyl)methyl]-3-(3,5-dichlorophenyl)-2-hydroxy-9-methyl-4-oxo-4H-pyrido[1,2-a]pyrimidinium inner salt]
- Concentration of Compound 1 in filtrate ([1]; acetone): 0.34 wt %
- Concentration of Compound 1 in filtrate ([1]; ethyl acetate): 0.18 wt %
- Concentration of Compound 1 in filtrate ([1]; tetrahydrofuran): 1.03 wt %
- Concentration of Compound 1 in filtrate ([1]; toluene): 0.049 wt %
- Concentration of Compound 1 in filtrate ([1]; water): <0.01 wt %
- Filtration time relative to Polymorph Form A ([4]; about 90 grams): more than 3 times
- Filtration time [4]: 3.0 min
- D10 [5]: 0.6 μm
- D90 [5]: 19 μm
- D50 [5]: 3.2 μm
- D[4, 3] [5]: 6.8 μm
- density [6]: 1.582 g/mL
